Entries after “also recorded” stand apart in the source; their conditions may differ.

This note sets out measurements from publication PMC8291071, “Tertiary sulphonamide derivatives as dual acting small molecules that inhibit LSD1 and suppress tubulin polymerisation against liver cancer” (Journal of Enzyme Inhibition and Medicinal Chemistry, 2021).

For one data set, the system named is SNU-475. The experiment in a line: MTT antiproliferative assay, SNU-475 cells. Conditions: Homo sapiens, 48 h. The class given is cell-based.
A further data set deals with HepG-2. The experiment in a line: MTT antiproliferative assay, HepG-2 cells. The class given is cell-based. Conditions: for IC50: Homo sapiens, HepG2, 48 h, MTT. The method, then: (§1) Cell lines were purchased from Servicebio (Wuhan, China) and cultured in RPMI1640 (Servicebio, Wuhan, China) with 10% foetal bovine serum and 1% antibiotic agent (Servicebio, Wuhan, China) at 37 °C. With the treatment of synthetic compounds, cells were cultured for 48 h and added with MTT solution (Servicebio, Wuhan, China). After 4 h, medium was removed and DMSO was added to culture for 30 min. Finally, the absorbance value was obtained by a microplate reader (Multiskan Sky, Thermo Fisher, Shanghai, China).
(§2) In order to discover the potent anti-liver cancer agents, all tertiary sulphonamide analogues were evaluated for their anticancer activity in vitro against liver cancer cell lines ([…], HepG-2 and Bel-7402). Cell lines were treat with different tertiary sulphonamide derivatives 16 and 17a∼17f for 48 h to obtain IC50 values. In this work, 5-fluorouracil as an well-known antitumor drug was selected as the control agent.
On the technique in general: Tetrazolium dyes change colour on reduction, which living cells bring about.

Another data set concerns Bel-7402. The experiment in a line: MTT antiproliferative assay, Bel-7402 cells. Conditions: Homo sapiens, 48 h. The class given is cell-based. As for the experimental part:
as §1, §2

Data set [1] has as its system H3K9me1/2 in Bel-7402 cells. The experiment in a line: Western blot of H3K9me1 and H3K9me2 in Bel-7402 cells. The class given is cell-based. Conditions: 48 h. The method, then: Liver cancer Bel-7402 cells were cultured for 24 h and treated with tertiary sulphonamide derivative 17a for 48 h at 37 °C. Protein lysates were harvested from the treated Bel-7402 cells. Nitrocellulose membrane was used to perform polyacrylamide gelelectrophoresis. H3K9me1 and H3K9me2 (Servicebio, Wuhan, China) were treated with the nitrocellulose membrane at 4 °C for 12 h. GAPDH as the secondary antibody was incubated for 1 h at room temperature (Shanghai Yuanye Bio-Technology Co., Ltd, Shanghai, China).
(§3) LSD1 could specifically demethylate mono- and dimethyl-lysine on histone H3 H3K9me1/2), leading to the transcriptional repression or activation of target genes. Thus, the expression levels of H3K9me1/2 in liver cancer Bel-7402 cells were explored with the treatment of 17a. […] The migration effects of tertiary sulphonamide derivative 17a were also investigated.
A general note: In western blotting, separated proteins are transferred to a membrane and probed.

A further data set concerns L-02 cells. Nature of the data set: Cytotoxicity against normal liver cell line L-02. The class given is cell-based. As for the experimental part: as §1
For data set [2], the system named is interphase microtubules in Bel-7402 cells. Nature of the data set: Immunofluorescence of interphase microtubules in Bel-7402 cells. The format is cell-based. Conditions: 50 nM. The method, then:
Liver cancer Bel-7402 cells were cultured on the slices for 24 h and treated with tertiary sulphonamide derivatives for 48 h. Then, Bel-7402 cells were fixed by 4% paraformaldehyde solution (Shanghai Yuanye Bio-Technology Co., Ltd, Shanghai, China) for 30 min. Bovine albumin was used to block the system for 30 min. Bel-7402 cells were cultured with β-tubulin and incubated for 24 h at 4 °C. Finally, 4′,6-diamidino-2-phenylindole (DAPI) was added in a dark room to obtain images of immunostaining (Confocal laser scanning microscope, FV3000RS, Beijing, China).

Another data set relates to Bel-7402 xenograft. Nature of the data set: Bel-7402 xenograft antitumour study. Conditions: 60 mg/kg, intragastric administration, 21 days.
A further data set concerns Bel-7402 cells. The experiment in a line: Transwell migration assay. The format is cell-based. Conditions: 48 h. The method, then: Liver cancer Bel-7402 cells were cultured in the upper chambers of a Transwell 24-well plate (Servicebio, Wuhan, China) for 24 h. 1% FBS and 20% FBS were added into the upper chambers and lower chambers respectively. […] Then, all medium was removed and Bel-7402 cells were fixed with ethanol for 30 min. Finally, Bel-7402 cells from the upper chambers were stained with haematoxylin solution (Servicebio, Wuhan, China) for 30 min.
as §3

The next data set concerns Bel-7402&shControl cells. The experiment in a line: Cell viability of control Bel-7402 cells. The class given is cell-based.
The test system of data set [3] is heart, liver, spleen, lung and kidney. The experiment in a line: Haematoxylin & eosin staining of organs of treated mice. Conditions: 60 mg/kg, intragastric, 21 days, H&E staining.
Procedure: (§4) Xenograft models using Bel-7402 cells was established in nude mice (Jiangsu ALF Biotechnology Co., LTD, Jiangsu, China). Then, mice-bearing tumours were divided into two groups (vehicle and 60 mg/kg group). […] Tumour volume and tumour weight of treated mice were measured.
(§5) Xenograft tumours were produced by the subcutaneous implantation of liver cancer Bel-7402 cells.
The next data set deals with tubulin. The experiment in a line: Inhibitory activity of tubulin polymerisation in vitro. The format is biochemical. Conditions: fluorescence intensity.
Another data set concerns the target LSD1 (Homo sapiens, UniProt O60341). Nature of the data set: LSD1 enzymatic assay. Conditions: for inhibition at 0.2 µM: read-out: inhibitory rate against LSD1.

Procedure for Bel-7402 xenograft: as §4, §5

As usually defined, the IC50 is the concentration at which inhibition is half-maximal. A lower IC50 goes with greater potency in that assay. Regarding `O=c1[nH]cc(F)c(=O)[nH]1` [5-Fluorouracil, reference compound], the IC50 was 26.47 ± 0.16 µM with SNU-475, 12.2 ± 0.68 µM in the data set on HepG-2 and 15.1 ± 1.28 µM with Bel-7402.
Broadly, the melting point is the temperature, or range, at which the solid turns liquid. Consider `COc1ccc(S(=O)(=O)N(CCBr)c2cc(OC)c(OC)c(OC)c2)cc1` [Compound 16, N-(2-bromoethyl)-4-methoxy-N-(3,4,5-trimethoxyphenyl)benzenesulfonamide], for which the melting point lay in the range of 116 to 118 °C. In addition, the IC50 with SNU-475 is above 20 µM. The same compound registered an IC50 with HepG-2 above 20 µM. For the same compound, the IC50 with Bel-7402 is above 20 µM.
`COc1ccc(S(=O)(=O)N(CCSC(=S)N2CCN(C)CC2)c2cc(OC)c(OC)c(OC)c2)cc1` [Compound 17a, 2-((4-Methoxy-N-(3,4,5-trimethoxyphenyl)phenyl)sulfonamido)ethyl-4-methylpiperazine-1-carbodithioate]: the “expression levels of H3K9me1 and H3K9me2” value in data set [1] was “increased the expression levels of H3K9me1 and H3K9me2”. The IC50 in the data set with SNU-475 turned out to be 0.73 ± 0.16 µM; with HepG-2, 0.57 ± 0.07 µM; with Bel-7402, 0.32 ± 0.08 µM. In addition, in the data set with L-02 cells, the “cytotoxicity against L-02 cells” value was above 64 µM. Also, the “depolymerisation of interphase microtubules” value (from here on “depolymerisation”) in [2] is reported as “more pronounced depolymerisation effects”. Also, in the data set with Bel-7402 xenograft, the “reduction of tumour weight” value worked out at 42.97%. In addition, in the data set on Bel-7402 xenograft, the tumour growth result is “effectively inhibited the tumour growth in vivo”. Moreover, the “migration of Bel-7402 cells” value in the data set with Bel-7402 cells is “concentration-dependently inhibited migration; also recorded: significantly inhibited the migration”. In addition, in the data set with Bel-7402&shControl cells, the “cell viability of Bel-7402&shControl cells” value is listed as “potently inhibited the cell viability”. Besides, the “toxicity of organs (heart, liver, spleen, lung and kidney)” value in data set [3] was “no apparent toxicity of organs”.
The compound `CCN1CCN(C(=S)SCCN(c2cc(OC)c(OC)c(OC)c2)S(=O)(=O)c2ccc(OC)cc2)CC1` [Compound 17b, 2-((4-Methoxy-N-(3,4,5-trimethoxyphenyl)phenyl)sulfonamido)ethyl-4-ethylpiperazine-1-carbodithioate] gave a melting point of 150 to 152 °C. In the data set with SNU-475, inhibition was half-maximal at 2.35 ± 0.7 µM (IC50). Also, the “cytotoxicity against L-02 cells” value with L-02 cells is above 64 µM. In data set [2], the “depolymerisation” value is listed as “more pronounced depolymerisation effects”. Also, the “fold activity increase against HepG-2 cells” value in the data set on HepG-2 (17b VS. 17c) is listed as “over 8 fold”. Besides, 1.03 ± 0.28 µM corresponded to half-maximal inhibition with HepG-2 (IC50). Also, inhibition with tubulin was half-maximal at 2.13 µM (IC50). The same compound registered an IC50 against LSD1 of 0.127 µM. Further, the IC50 in the data set on Bel-7402 is 1.37 ± 0.16 µM.
`COc1ccc(S(=O)(=O)N(CCSC(=S)N2CCN(CCO)CC2)c2cc(OC)c(OC)c(OC)c2)cc1` [Compound 17c, 2-((4-Methoxy-N-(3,4,5-trimethoxyphenyl)phenyl)sulfonamido)ethyl-4–(2-hydroxyethyl)piperazine-1-carbodithioate] gave a melting point of 146 to 148 °C. Besides, it took 10.8 ± 1.01 µM to reach half-maximal inhibition with SNU-475 (IC50). In the data set on HepG-2, this compound yielded a half-maximal inhibitory concentration (IC50) of 9.17 ± 2.18 µM. Also, the midpoint of inhibition in the data set with Bel-7402, the IC50, lay at 7.09 ± 1.33 µM.
`COc1ccc(S(=O)(=O)N(CCSC(=S)N2CCN(C(C)=O)CC2)c2cc(OC)c(OC)c(OC)c2)cc1` [Compound 17d, 2-((4-Methoxy-N-(3,4,5-trimethoxyphenyl)phenyl)sulfonamido)ethyl-4-acetylpiperazine-1-carbodithioate] gave a melting point of 152 to 154 °C. Moreover, in the data set with SNU-475, the IC50 is 5.06 ± 0.68 µM. In the data set on HepG-2, the IC50 is 3.29 ± 0.84 µM. The IC50 with tubulin worked out at 1.78 µM. In addition, at LSD1, the IC50 was above 0.2 µM and the inhibition at 0.2 µM turned out to be 46%. The “fold activity loss against LSD1” value at LSD1 (methyl group replaced with acetyl group (17d VS. 17f as printed)) is “over 3 fold”. For the same compound, in the data set with Bel-7402, the concentration for half-maximal inhibition (IC50) came out at 1.58 ± 1.02 µM.
`COc1ccc(S(=O)(=O)N(CCSC(=S)N2CCN(c3ccc(F)cc3)CC2)c2cc(OC)c(OC)c(OC)c2)cc1` [Compound 17e, 2-((4-Methoxy-N-(3,4,5-trimethoxyphenyl)phenyl)sulfonamido)ethyl-4–(4-fluorophenyl)piperazine-1-carbodithioate] had a melting point of 166 to 168 °C. The same compound gave a 50% inhibitory concentration (IC50) with SNU-475 of 6.17 ± 1.05 µM. For the same compound, the IC50 with HepG-2 came out at 7.57 ± 0.96 µM. The same compound registered an IC50 with Bel-7402 of 9.18 ± 1.32 µM.
In the case of `COc1ccc(S(=O)(=O)N(CCSC(=S)N2CCN(C(=O)OC(C)(C)C)CC2)c2cc(OC)c(OC)c(OC)c2)cc1` [Compound 17f, Tert-butyl-4-(((2-((4-methoxy-N-(3,4,5-trimethoxyphenyl)phenyl)sulfonamido)ethyl)thio)carbonothioyl)piperazine-1-carboxylate], the melting point fell in the range of 162 to 164 °C. Further, the midpoint of inhibition in the data set with SNU-475, the IC50, lay at 4.46 ± 1.38 µM. For the same compound, the “depolymerisation” value in data set [2] is “moderately depolymerised interphase microtubules”. Further, the IC50 in the data set with HepG-2 is 6.67 ± 1.25 µM. In the data set with tubulin, the IC50 came out at 3.07 µM. At LSD1, the half-maximal inhibitory concentration (IC50) was above 0.2 µM and the inhibition at 0.2 µM was determined as 35.7%. In addition, the midpoint of inhibition in the data set with Bel-7402, the IC50, lay at 2.32 ± 1.63 µM.
